Test: dissolution profile before and after storage
Type: physicochemical
Conditions: during shelf life

## CCCCCCCCc1ccc(CCC(N)(CO)CO)cc1.Cl [polymorphic form B, fingolimod hydrochloride]
  dissolution profile before and after storage: constant
